Legend:
aldosterone synthase = target: T1, aldosterone synthase (Homo sapiens, UniProt P19099); experiment: Aldosterone cell secretion in NCI-H295R cells (aldosterone synthase inhibition, SPA); format: cell-based; details: human adrenocortical carcinoma NCI-H295R cells, 1 μM Ang II, 24 hr
T1 construct: host or cells: NCI-H295R
T1 sequence (P19099 25-503): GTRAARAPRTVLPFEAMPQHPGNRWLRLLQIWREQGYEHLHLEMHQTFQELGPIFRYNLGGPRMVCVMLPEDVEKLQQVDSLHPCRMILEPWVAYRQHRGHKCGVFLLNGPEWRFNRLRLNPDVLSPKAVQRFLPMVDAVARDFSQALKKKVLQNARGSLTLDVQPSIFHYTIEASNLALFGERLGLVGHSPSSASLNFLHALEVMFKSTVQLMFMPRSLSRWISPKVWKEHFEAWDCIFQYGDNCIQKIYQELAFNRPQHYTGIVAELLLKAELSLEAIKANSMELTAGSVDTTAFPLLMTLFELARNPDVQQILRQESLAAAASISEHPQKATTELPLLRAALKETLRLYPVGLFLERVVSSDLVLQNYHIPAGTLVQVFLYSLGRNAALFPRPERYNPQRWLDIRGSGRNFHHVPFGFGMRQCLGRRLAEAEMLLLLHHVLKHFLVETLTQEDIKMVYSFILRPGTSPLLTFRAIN
Excerpt: In particular, the aldosterone synthase inhibitory activities in vitro can be determined by the following assay.
Human adrenocortical carcinoma NCI-H295R cell line was obtained from American Type Culture Collection (Manassas, Va.). Insulin/transferrin/selenium (ITS)-A supplement (100×). DMEM/F-12, antibiotic/antimycotic (100×), and fetal bovine serum (FBS) were purchased from Invitrogen (Carlsbad, Calif.). Anti-mouse PVT scintillation proximity assay (SPA) beads and NBS 96-well plates were obtained from GE Health Sciences (Piscataway, N.J.) and Corning (Acton, Mass.), respectively. Solid black 96-well flat bottom plates were purchased from Costar (Corning, N.Y.). Aldosterone and angiotensin (Ang II) were purchased from Sigma (St. Louis, Mo.). D-[1,2,6,7-^3H(N)]aldosterone was acquired from PerkinElmer (Boston, Mass.). Nu-serum was a product of BD Biosciences (Franklin Lakes, N.J.). The NADPH regenerating system, dibenzylfluorescein (DBF), and human aromatase Supersomes® were obtained from Gentest (Woburn, Mass.).
For in vitro measurement of aldosterone activity, human adrenocortical carcinoma NCI-H295R cells are seeded in NBS 96-well plates at a density of 25,000 cells/well in 100 μl of a growth medium containing DMEM/F12 supplemented with 10% FCS, 2.5% Nu-serum, 1 μg ITS/ml, and 1× antibiotic/antimycotic. The medium is changed after culturing for 3 days at 37° C. under an atmosphere of 5% CO2/95% air. On the following day, cells are rinsed with 100 μl of phosphate-buffered saline (PBS) and incubated with 100 μl of treatment medium containing 1 μM Ang II and a compound at different concentrations in quadruplicate wells at 37° C. for 24 hr. At the end of incubation, 50 μl of medium is withdrawn from each well for measurement of aldosterone production by an SPA using mouse anti-aldosterone monoclonal antibodies.
Measurement of aldosterone activity can also be performed using a 96-well plate format. Each test sample is incubated with 0.02 μCi of D-[1,2,6,7-^3H(N)]aldosterone and 0.3 μg of anti-aldosterone antibody in PBS containing 0.1% Triton X-100, 0.1% bovine serum albumin, and 12% glycerol in a total volume of 200 μl at room temperature for 1 hr. Anti-mouse PVT SPA beads (50 μl) are then added to each well and incubated overnight at room temperature prior to counting in a Microbeta plate counter. The amount of aldosterone in each sample is calculated by comparing with a standard curve generated using known quantities of the hormone.
(§1) Inhibition of the release of certain steroids can be used as a measure of the respective enzyme inhibition by the added test compounds. The dose-dependent inhibition of enzymic activity by a compound is calculated by means of an inhibition plot which is characterized by an IC50.
The IC50 values for active test compounds are ascertained by a simple linear regression analysis in order to construct inhibition plots without data weighting. The inhibition plot is calculated by fitting a 4-parameter logistic function to the raw data points using the least squares method. The equation of the 4-parameter logistic function is calculated as follows: Y=(d−a)/((1+(x/c)b))+a, where: a=minimum data level, b=gradient, I […], d=maximum data level, x=inhibitor concentration.
The inhibition activity of aldosterone production can also be expressed in percentage inhibition (% inhibition) at a given concentration (e.g. % inhibition at 1 μM), which is the aldosterone level when the cell is treated with the given concentration of a compound of this invention (e.g. concentration of 1 μM) versus the aldosterone excretion when cell is free of the compound of the invention: % inhibition aldosterone production=[(Y−X)/Y]×100 wherein X is the level of aldosterone when the cell is treated with a compound of Formula I; and Y is the level of aldosterone when the cell is free of compound of Formula I.

CYP11B1 = target: T2, CYP11B1 (Homo sapiens, UniProt P15538); experiment: Cortisol cell secretion in NCI-H295R cells (CYP11B1 activity); format: cell-based; details: compound at 1 μM; for inhibition at 1 µM: NCI-H295R, read-out: Cortisol cell secretion (% Inhib. @ 1 μM)
T2 construct: the NCI-H295R cells have Cyp11 B1 (steroid 11 β-hydroxylase); host or cells: NCI-H295R
T2 sequence (P15538 25-503): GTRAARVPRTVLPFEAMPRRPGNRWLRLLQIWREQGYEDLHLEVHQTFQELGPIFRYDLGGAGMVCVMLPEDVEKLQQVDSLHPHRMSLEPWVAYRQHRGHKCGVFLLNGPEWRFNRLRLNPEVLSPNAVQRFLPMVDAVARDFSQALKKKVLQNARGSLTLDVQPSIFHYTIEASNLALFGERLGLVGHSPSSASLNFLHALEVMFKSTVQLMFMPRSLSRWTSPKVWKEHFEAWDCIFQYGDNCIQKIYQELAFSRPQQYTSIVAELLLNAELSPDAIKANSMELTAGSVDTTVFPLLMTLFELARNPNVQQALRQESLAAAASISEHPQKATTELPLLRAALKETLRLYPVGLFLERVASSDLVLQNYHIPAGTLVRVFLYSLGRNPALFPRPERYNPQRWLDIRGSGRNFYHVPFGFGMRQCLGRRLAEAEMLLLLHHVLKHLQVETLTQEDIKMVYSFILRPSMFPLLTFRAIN
Excerpt: The in vitro inhibitory activities for CYP1B1 can be determined by the following assay.
The cell line NCI-H295R was originally isolated from an adrenocortical carcinoma and has been characterized in the literature through the stimulable secretion of steroid hormones and the presence of the enzymes essential for steroidogenesis. Thus, the NCI-H295R cells have Cyp11 B1 (steroid 11 β-hydroxylase). The cells show the physiological property of zonally undifferentiated human foetal adrenocortical cells which, however, have the capacity to produce the steroid hormones which are formed in the three, phenotypically distinguishable zones in the adult adrenal cortex.
The NCI-H295R cells (American Type Culture Collection, ATCC, Rockville, Md., USA) are grown in Dulbeoco's Modified Eagle'Ham F-12 Medium (DME/F12), which has been supplemented with Ulroser SF Serum (Soprachem, Geigy-Saint-Christophe, France), insulin, transferrin, selenite (I-T-S, Becton Dickinson Biosiences, Franklin lakes. NJ, USA) and antibiotics in 75 cm^2 cell culture vessels at 37° C. and in a 95% air-5% carbon dioxide atmosphere. The cells are subsequently transferred for colony formation into a 24-well incubation vessel. They are cultivated there in DME/F12 medium, which is now supplemented with 0.1% bovine serum instead of Ultroser SF for 24 hours. The experiment is initiated by cultivating the cells in DME/F12 medium which is supplemented with 0.1% bovine serum albumin and test compound, in the presence or absence of cell stimulants, for 72 hours. The test substance is added in a concentration range from 0.2 nanomolar to […]. Cell stimulants which can be used are angiotensin II (1 D or 100 nanomolar), potassium ions (16 millimolar), forskolin (10 micromolar) or a combination of two stimulants.
The excretion of aldosterone, cortisol, corticosterone and estradiol/estrone into the culture medium can be detected and quantified by commercially available, specific monoclonal antibodies in radioimmunoassays in accordance with the manufacturer's instructions.
as §1
The inhibition activity of cortisol production (CYP11B1 activity) can also be expressed in percentage inhibition (% inhibition) at a given concentration (e.g. % inhibition at 1 μM), which is the cortisol level when cell is treated with the given concentration of a compound of the invention (e.g. concentration of 1 μM) versus the cortisol excretion when cell is free of the compound of the invention. % inhibition cortisol production=[(Y′−X′)/Y′]×100 wherein X′ is the level of cortisol when the cell is treated with a compound of Formula I; and Y′ is the level of cortisol when the cell is free of compound of Formula I.

| IC50 (aldosterone synthase) | inhibition at 1 µM (CYP11B1) | Cortisol cell secretion (% Inhib. @ 1 μM) (CYP11B1; 1 µM) | Cortisol cell secretion (% Inhib. @ 1 μM) (CYP11B1) | SMILES |
| --- | --- | --- | --- | --- |
| 28 nM | 64% | – | – | Cn1c(=O)oc2ccc(-c3cncc(C(O)C4CC4)c3)cc21 (single isomer, unassigned) [Example 13 Enantiomer 1, 5-(5-(cyclopropyl(hydroxy)methyl)pyridin-3-yl)-3-methylbenzo[d]oxazol-2(3H)-one] |
| 30 nM | – | – | 64% | Cn1c(=O)oc2ccc(-c3cncc(C(O)C4CC4)c3)cc21 (single isomer, unassigned) [Example 13 Enantiomer 2, 5-(5-(cyclopropyl(hydroxy)methyl)pyridin-3-yl)-3-methylbenzo[d]oxazol-2(3H)-one] |
| 47 nM | 57% | – | – | Cn1c(=O)oc2ccc(-c3cncc(C(N)C(F)(F)F)c3)cc21 (single isomer, unassigned) [Example 29 Enantiomer 1, 5-(5-(1-amino-2,2,2-trifluoroethyl)pyridin-3-yl)-3-methylbenzo[d]oxazol-2(3H)-one] |
| 34 nM | – | – | 57% | Cn1c(=O)oc2ccc(-c3cncc(C(N)C(F)(F)F)c3)cc21 (single isomer, unassigned) [Example 29 Enantiomer 2, 5-(5-(1-amino-2,2,2-trifluoroethyl)pyridin-3-yl)-3-methylbenzo[d]oxazol-2(3H)-one] |
| 3 nM | 89% | – | – | Cn1c(=O)oc2ccc(-c3cncc(C(C)(C)O)c3)cc21 [Example 14, 5-(5-(2-hydroxypropan-2-yl)pyridin-3-yl)-3-methylbenzo[d]oxazol-2(3H)-one] |
| 21 nM | 83% | – | – | Cn1c(=O)oc2ccc(-c3cncc(CO)c3)cc21 [Example 15, 5-(5-(hydroxymethyl)pyridin-3-yl)-3-methylbenzo[d]oxazol-2(3H)-one] |
| 34 nM | 57% | – | – | Cn1c(=O)oc2ccc(-c3cncc(CCO)c3)cc21 [Example 18, 5-(5-(2-hydroxyethyl)pyridin-3-yl)-3-methylbenzo[d]oxazol-2(3H)-one] |

The next lines start with the molecule.

| SMILES | IC50 (aldosterone synthase) | inhibition at 1 µM (CYP11B1) | Cortisol cell secretion (% Inhib. @ 1 μM) (CYP11B1; 1 µM) | Cortisol cell secretion (% Inhib. @ 1 μM) (CYP11B1) |
| --- | --- | --- | --- | --- |
| CC(O)c1ccncc1-c1ccc2oc(=O)n(C)c2c1 (single isomer, unassigned) [Example 7 Enantiomer 1, 5-(4-(1-hydroxyethyl)pyridin-3-yl)-3-methylbenzo[d]oxazol-2(3H)-one] | 437 nM | – | – | – |
| CC(O)c1ccncc1-c1ccc2oc(=O)n(C)c2c1 (single isomer, unassigned) [Example 7 Enantiomer 2, 5-(4-(1-hydroxyethyl)pyridin-3-yl)-3-methylbenzo[d]oxazol-2(3H)-one] | 452 nM | – | – | – |
| Cn1c(=O)oc2ccc(-c3cnccc3C(O)c3ccc(F)cc3)cc21 (single isomer, unassigned) [Example 8 Enantiomer 1, 5-(4-((4-fluorophenyl)(hydroxy)methyl)pyridin-3-yl)-3-methylbenzo[d]oxazol-2(3H)-one] | 53 nM | 77% | – | – |
| Cn1c(=O)oc2ccc(-c3cnccc3C(O)c3ccc(F)cc3)cc21 (single isomer, unassigned) [Example 8 Enantiomer 2, 5-(4-((4-fluorophenyl)(hydroxy)methyl)pyridin-3-yl)-3-methylbenzo[d]oxazol-2(3H)-one] | 66 nM | – | 73% | – |
| Cn1c(=O)oc2ccc(-c3cccnc3)cc21 [Example 1, 3-Methyl-5-pyridin-3-yl-3H-benzooxazol-2-one] | 17.8 nM | 58% | – | – |
| Cc1ccncc1-c1ccc2oc(=O)n(C)c2c1 [Example 2, 3-Methyl-5-(4-methyl-pyridin-3-yl)-3H-benzooxazol-2-one] | 4 nM | 82% | – | – |
| COc1cncc(-c2ccc3oc(=O)n(C)c3c2)c1 [Example 4, 5-(5-methoxypyridin-3-yl)-3-methylbenzo[d]oxazol-2(3H)-one] | 18 nM | 77% | – | – |
| CCN(Cc1ccccc1)Cc1cncc(-c2ccc3oc(=O)n(C)c3c2)c1 [Example 10, 5-{5-[(Benzyl-ethyl-amino)-methyl]-pyridin-3-yl}-3-methyl-3H-benzooxazol-2-one] | 17 nM | 96% | – | – |
| Cn1c(=O)oc2cc(F)c(-c3cncc(CO)c3)cc21 [Example 11] | 128 nM | 39% | – | – |

Source: patent publication US8455522B2, “Benzoxazolone derivatives as aldosterone synthase inhibitors” (Novartis AG, priority 2009, dated 2013)
